Converted amounts (≈) assume the structure as drawn. Where a SMILES comes first, the peptide text is derived from it. [ ]: non-standard residue; d: D form. dPhe(4-NO2) = N[C@H](Cc1ccc([N+](=O)[O-])cc1)C(=O)O; dPhe(3,4,5-F3) = N[C@H](Cc1cc(F)c(F)c(F)c1)C(=O)O; dPhe(F5) = N[C@H](Cc1c(F)c(F)c(F)c(F)c1F)C(=O)O; dPhe(4-NH2) = Nc1ccc(C[C@@H](N)C(=O)O)cc1; dPhe(4-Me) = Cc1ccc(C[C@@H](N)C(=O)O)cc1; dPhe(2-Me) = Cc1ccccc1C[C@@H](N)C(=O)O; dPhe(4-F) = N[C@H](Cc1ccc(F)cc1)C(=O)O
Experiments:
[1] = molecular target: T1, hKOR (Homo sapiens, UniProt P41145); assay: KOR cAMP assay using GloSensor-22F, agonist mode (KOR-CHO-GLO cells); format: cell-based; details: read-out: KOR Efficacy (%)
[2] = Metabolic stability in mouse liver microsomes; format: in vitro ADME; details: 1 mg protein/mL; for half-life / microsomal CLint: microsomes; for half-life / half-life at 1 µM: 1 µM compound, 37 °C, read-out: MLM t1/2; for microsomal CLint / microsomal CLint at 1 µM: read-out: MLM CLint; for half-life at 1 µM / microsomal CLint at 1 µM: mouse liver microsomes
Experimental: (§1) Evaluation of the metabolic stability of the macrocyclic tetrapeptides by human and mouse liver microsomes was performed by Curia Global (Buffalo, NY, USA). […]

[3] = Kinetic aqueous solubility; format: physicochemical; details: 1% DMSO, pH 7.4
Text: Table A1 Stability of [D-Trp]- and [D-Phe^4]CJ-15,208 and selected analogs in human (HLMs) and mouse liver microsomes (MLMs)^1. and kinetic aqueous solubility. | column: Solubility ^2 / (µM)

[4] = Metabolic stability in human liver microsomes; format: in vitro ADME; details: 1 mg protein/mL; for half-life / microsomal CLint: microsomes; for half-life / half-life at 1 µM: 1 µM compound, 37 °C, read-out: HLM t1/2; for microsomal CLint / microsomal CLint at 1 µM: read-out: HLM CLint; for half-life at 1 µM / microsomal CLint at 1 µM: human liver microsomes
Experimental: as §1

[5] = molecular target: T1, hKOR; assay: Competition binding, [3H]U69,593, hKOR-CHO membranes; details: for Ki: [3H]U69,593, human KOR, ± S.E.M., three independent experiments, read-out: KOR Ki
[6] = molecular target: T1, hKOR; assay: KOR cAMP assay using GloSensor-22F, antagonist mode (vs 10 nM U50,488); format: cell-based
Text: A piggy-Bac (PB) transposon/transposase system was utilized to allow for the stable integration of the GloSensor-22F cAMP sensor (Promega, Madison, WI, USA) gene into genomic TTAA sites in Chinese hamster ovary cells already stably expressing the hKOR. The pFastBac hyperPB plasmid vector, which codes for the piggy-Bac transposon/transposase system, was utilized and was a kind gift from Dr. John Lueck. The multicistronic expression cassette developed for our experiments consisted of a CMV promoter driving constitutive expression of GloSensor-22F cAMP sensor, followed by an internal ribosome entry site (IRES) to drive the expression of codon-optimized HygR-P2A-mScarlet (hygromycin resistance gene and mScarlet separated by a 2A self-cleaving peptide element). To clone the expression cassette onto the pFastBac vector, the CMV promoter and GloSensor-22F were PCR amplified from pGloSensor-22F cAMP Plasmid (Promega), the IRES sequence was PCR amplified from pLVX-CMV-Galpha-oA ONE-GO (a gift from Dr. Mikel Garcia-Marcos, Addgene plasmid #189732), the HygR-P2A-mScarlet sequence was a kind gift from Dr. Lueck, and a bGH-poly(A) termination sequence was PCR amplified from pcDNA3.1(+). The pFastBac vector was linearized via overnight digestion with CspCI at 37 °C, which cuts between two inverted terminal repeat (ITR) sequences, and the corresponding backbone and all PCR fragments were gel purified and assembled via Gibson assembly using the Gibson Assembly MasterMix (New England Biolabs, Ipswich, MA, USA). The resulting pFastBac CMV GloSensor-22F IRES HygR-P2A-mScarlet bGH plasmid was transformed into NEB Stable Competent E. coli (New England Biolabs), miniprepped using the E.Z.N.A. Plasmid DNA Mini Kit (Omega Bio-Tek, Norcross, GA, USA), and sequence verified by nanopore whole-plasmid sequencing (Eurofins Genomics, Louisville, KY, USA).
3.0 × 10^6 hKOR-CHO cells were plated on a 6 cm dish and incubated for four h at 37 °C and 5% CO2 in DMEM (Corning Mediatech, Manassas, VA, USA) supplemented with 5% FBS (Corning Mediatech), 1% Penicillin/Streptomycin (Gibco, Waltham, MA, USA). The cells were then transfected with 2.0 μg pFastBac CMV GloSensor-22F IRES HygR-P2A-mScarlet bGH using PEI as a transfection reagent. The following day, transfected cells were reseeded onto a 10 cm dish at a density of 5.0 × 10^5 cells and 600 μg/mL hygromycin B (Gold Bio, St. Louis, MO, USA) was added to the culture media. Cells were cultured under selection antibiotics for seven days, and the selection process was monitored by the increase in abundance of mScarlet positive cells via epifluorescence microscopy.
Following the selection period, KOR-CHO-GLO cells were maintained at 37 °C and 5% CO2 in DMEM supplemented with 5% FBS, 1% Penicillin/Streptomycin and 300 μg/mL hygromycin B to reduce the likelihood of CMV promoter silencing. On the day of the assay, cells were detached with 0.05% trypsin (Gibco) and counted, then centrifuged (1000× g, 5 min) and resuspended in assay buffer (1xPBS, 0.1% glucose, 0.5 mM MgCl2) containing 4 mM D-luciferin substrate (Gold Bio) at approximately 2 million cells/mL. 25 μL of cells (~50,000/well) were seeded onto poly L-lysine-coated white 96-well flat bottom plates (Greiner Bio-One, Kremsmünster, Austria)) and returned to the incubator for 60 min. Following incubation, cells were allowed to equilibrate to room temperature protected from light (10–15 min). Initial luminescence readings (at least 10 cycles) were collected for each well using a FLUOstar Omega v.6.2 plate reader (BMG Labtech, Ortenberg, Germany), after which the plate was removed. Prepared 4x treatments of drug (25 μL) were added to appropriate wells followed by 50 μL of 20 μM forskolin (AmBeed, Buffalo Grove, IL, USA) before the plate was returned to the reader and luminescence measured until final plateau levels were achieved (20–30 min). Assays were performed in duplicate and repeated at least three times.

[7] = molecular target: T2, human MOR (Homo sapiens, UniProt P35372); assay: biochemical; format: binding; details: [3H]DAMGO, human MOR; ± S.E.M., three independent experiments; read-out: MOR Ki
T2 construct: expressed in transfected cells

Cc1ccc(C[C@H]2NC(=O)[C@H](Cc3ccccc3)NC(=O)[C@H]3CCCN3C(=O)[C@H](Cc3ccccc3)NC2=O)cc1 [Analog 15] (cyclo(F[dP]F[dPhe(4-Me)]))
Emax at 10 µM [1]: 18 ± 1.4% | half-life [2]: 2.9 min | microsomal CLint [2]: 236 µL/min/mg | solubility kinetic [3]: 24 µM (≈ 13.3 µg/mL) | half-life [4]: 5.4 min | microsomal CLint [4]: 129 µL/min/mg

O=C1N[C@H](Cc2cc(F)c(F)c(F)c2)C(=O)N[C@@H](Cc2ccccc2)C(=O)N2CCC[C@@H]2C(=O)N[C@H]1Cc1ccccc1 [Analog 11] (cyclo(F[dP]F[dPhe(3,4,5-F3)]))
Emax at 10 µM [1]: 2.2 ± 6.2% | Selectivity (MOR Ki/KOR Ki) [5]: 4 | Ki [5]: 12 ± 0.44 nM | IC50 [6]: 160 ± 19 nM | half-life at 1 µM [2]: 2.9 min | microsomal CLint at 1 µM [2]: 238 µL/min/mg | solubility kinetic [3]: 4.8 µM (≈ 2.84 µg/mL) | Ki [7]: 46 ± 5.4 nM | half-life at 1 µM [4]: 1.6 min | microsomal CLint at 1 µM [4]: 447 µL/min/mg

O=C1N[C@H](Cc2ccc(F)cc2)C(=O)N[C@@H](Cc2ccccc2)C(=O)N2CCC[C@@H]2C(=O)N[C@H]1Cc1ccccc1 [Analog 7] (cyclo(F[dP]F[dPhe(4-F)]))
Emax at 10 µM [1]: 5.5 ± 7.9% | half-life [2]: 3.4 min | microsomal CLint [2]: 202 µL/min/mg | solubility kinetic [3]: 25 µM (≈ 13.9 µg/mL) | half-life [4]: 2.3 min | microsomal CLint [4]: 296 µL/min/mg

Nc1ccc(C[C@H]2NC(=O)[C@H](Cc3ccccc3)NC(=O)[C@H]3CCCN3C(=O)[C@H](Cc3ccccc3)NC2=O)cc1 [Analog 17] (cyclo(F[dP]F[dPhe(4-NH2)]))
inhibition at 10 µM ([5]; at 10 μM): 65%

O=C1N[C@H](Cc2c(F)c(F)c(F)c(F)c2F)C(=O)N[C@@H](Cc2ccccc2)C(=O)N2CCC[C@@H]2C(=O)N[C@H]1Cc1ccccc1 [Analog 12] (cyclo(F[dP]F[dPhe(F5)]))
fold decrease in KOR affinity (fluorine substitution on D-Phe^4) [5]: 13 fold | Ki [5]: 310 ± 9.9 nM

O=C1N[C@H](Cc2ccc([N+](=O)[O-])cc2)C(=O)N[C@@H](Cc2ccccc2)C(=O)N2CCC[C@@H]2C(=O)N[C@H]1Cc1ccccc1 [Analog 16] (cyclo(F[dP]F[dPhe(4-NO2)]))
Emax at 10 µM [1]: 7.3 ± 7.3% | Selectivity (MOR Ki/KOR Ki) [5]: 9 | Ki [5]: 7 ± 0.99 nM | IC50 [6]: 210 ± 13 nM | half-life at 1 µM [2]: 4.4 min | microsomal CLint at 1 µM [2]: 159 µL/min/mg | solubility kinetic [3]: 6.7 µM (≈ 3.91 µg/mL) | Ki [7]: 61 ± 2.7 nM | half-life at 1 µM [4]: 6.7 min | microsomal CLint at 1 µM [4]: 103 µL/min/mg

Cc1ccccc1C[C@H]1NC(=O)[C@H](Cc2ccccc2)NC(=O)[C@H]2CCCN2C(=O)[C@H](Cc2ccccc2)NC1=O [Analog 13] (cyclo(F[dP]F[dPhe(2-Me)]))
Selectivity (MOR Ki/KOR Ki) [5]: 2.5 | Ki [5]: 110 ± 13 nM | Ki [7]: 280 ± 8 nM
